Data taken from patent publication US20240252506A1 (Hoffmann-La Roche Inc., priority 2021, published 2024).
In brackets after ≈: the same amount, converted by molar mass.

These compounds were tested on Escherichia coli ATCC 25922 (assay: Minimal Inhibitory Concentration (MIC) determination, broth microdilution (CLSI M07-A10)). Details: Escherichia coli, ATCC25922, strain Escherichia coli ATCC 25922, 18-24 hours at 35±2° C., lowest concentration for complete growth inhibition (no visible growth), read-out: Escherichia coli growth inhibition MIC.
Assay type: cell-based
In short: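 MIC read visually as the lowest concentration with complete growth inhibition after 18-24 h at 35±2° C, ambient air. Method follows CLSI M07-A10 broth microdilution, two-fold compound series, inoculum standardized to 0.5 McFarland then diluted 1:200.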

Compared with CN[C@@H](C)c1nc2c(F)c3c(c(F)c2[nH]1)CC(CN1CCC2(CC1)CN(c1cnc4c(n1)NC(=O)CO4)C(=O)O2)C3 [Example 38, 6-[8-[[4,8-difluoro-2-[(1S)-1-(methylamino)ethyl]-3,5,6,7-tetrahydrocyclopenta[f]benzimidazol-6-yl]methyl]-2-oxo-1-oxa-3,8-diazaspiro[4.5]decan-3-yl]-4H-pyrazino[2,3-b][1,4]oxazin-3-one], CN[C@H](CO)Cc1nc2c(F)c3c(c(F)c2[nH]1)CC(CN1CCC2(CC1)CN(c1cnc4c(n1)NC(=O)CO4)C(=O)O2)C3 [Example 57, 6-[8-[[4,8-difluoro-2-[(2S)-3-hydroxy-2-(methylamino)propyl]-3,5,6,7-tetrahydrocyclopenta[f]benzimidazol-6-yl]methyl]-2-oxo-1-oxa-3,8-diazaspiro[4.5]decan-3-yl]-4H-pyrazino[2,3-b][1,4]oxazin-3-one] is 4-fold higher in MIC: 0.125 µg/mL (≈ 0.22 µM) for the first, 0.5 µg/mL (≈ 0.835 µM) for the second.

Nc1cnc2c(F)c3c(c(F)c2n1)CC(CN1CCC2(CC1)CN(c1cnc4c(n1)NC(=O)CO4)C(=O)O2)C3 (centres unmarked) [Example 39, 6-[8-[(3-amino-5,9-difluoro-7,8-dihydro-6H-cyclopenta[g]quinoxalin-7-yl)methyl]-2-oxo-1-oxa-3,8-diazaspiro[4.5]decan-3-yl]-4H-pyrazino[2,3-b][1,4]oxazin-3-one] and CNCCNc1cnc2c(F)c3c(c(F)c2n1)CC(CN1CCC2(CC1)CN(c1cnc4c(n1)NC(=O)CO4)C(=O)O2)C3 (centres unmarked) [Example 40, 6-[8-[[5,9-difluoro-3-[2-(methylamino)ethylamino]-7,8-dihydro-6H-cyclopenta[g]quinoxalin-7-yl]methyl]-2-oxo-1-oxa-3,8-diazaspiro[4.5]decan-3-yl]-4H-pyrazino[2,3-b][1,4]oxazin-3-one] are the same in MIC: 0.5 µg/mL (≈ 0.928 µM) for the first, 0.5 µg/mL (≈ 0.839 µM) for the second.

NCCn1nc2c(F)c3c(c(F)c2n1)CC(CN1CCC2(CC1)CN(c1cnc4c(n1)NC(=O)CO4)C(=O)O2)C3 [Example 41, 6-[8-[[2-(2-aminoethyl)-4,8-difluoro-6,7-dihydro-5H-cyclopenta[f]benzotriazol-6-yl]methyl]-2-oxo-1-oxa-3,8-diazaspiro[4.5]decan-3-yl]-4H-pyrazino[2,3-b][1,4]oxazin-3-one] and NCCn1nnc2c(F)c3c(c(F)c21)CC(CN1CCC2(CC1)CN(c1cnc4c(n1)NC(=O)CO4)C(=O)O2)C3 (centres unmarked) [Example 42, 6-[8-[[1-(2-aminoethyl)-4,8-difluoro-6,7-dihydro-5H-cyclopenta[f]benzotriazol-6-yl]methyl]-2-oxo-1-oxa-3,8-diazaspiro[4.5]decan-3-yl]-4H-pyrazino[2,3-b][1,4]oxazin-3-one] cannot be ordered by MIC: at most 0.06 µg/mL for the first, at most 0.06 µg/mL for the second.

Compared with NCCn1c(=O)n(CCN)c2c(F)c3c(c(F)c21)CC(CN1CCC2(CC1)CN(c1cnc4c(n1)NC(=O)CO4)C(=O)O2)C3.O=C(O)C(F)(F)F [Example 43, 6-[8-[[1,3-bis(2-aminoethyl)-4,8-difluoro-2-oxo-6,7-dihydro-5H-cyclopenta[f]benzimidazol-6-yl]methyl]-2-oxo-1-oxa-3,8-diazaspiro[4.5]decan-3-yl]-4H-pyrazino[2,3-b][1,4]oxazin-3-one; 2,2,2-trifluoroacetic acid], NCCn1c(=O)[nH]c2c(F)c3c(c(F)c21)CC(CN1CCC2(CC1)CN(c1cnc4c(n1)NC(=O)CO4)C(=O)O2)C3 (centres unmarked) [Example 44, 6-[8-[[1-(2-aminoethyl)-4,8-difluoro-2-oxo-3,5,6,7-tetrahydrocyclopenta[f]benzimidazol-6-yl]methyl]-2-oxo-1-oxa-3,8-diazaspiro[4.5]decan-3-yl]-4H-pyrazino[2,3-b][1,4]oxazin-3-one] is 8-fold lower in MIC: 2 µg/mL for the first, 0.25 µg/mL (≈ 0.438 µM) for the second.

Going from C[C@@H](N)c1nc2cc3c(c(F)c2[nH]1)CC(CN1CCC2(CC1)CN(c1cnc4c(n1)NC(=O)CO4)C(=O)O2)C3 (stereo partly drawn) [Example 45, 6-[8-[[2-[(1R)-1-aminoethyl]-8-fluoro-1,5,6,7-tetrahydrocyclopenta[f]benzimidazol-6-yl]methyl]-2-oxo-1-oxa-3,8-diazaspiro[4.5]decan-3-yl]-4H-pyrazino[2,3-b][1,4]oxazin-3-one] to CN[C@H](CO)c1nc2c(F)c3c(c(F)c2[nH]1)CC(CN1CCC2(CC1)CN(c1cnc4c(n1)NC(=O)CO4)C(=O)O2)C3.O=C(O)C(F)(F)F [Example 56, 6-[8-[[4,8-difluoro-2-[(1S)-2-hydroxy-1-(methylamino)ethyl]-3,5,6,7-tetrahydrocyclopenta[f]benzimidaozl-6-yl]methyl]-2-oxo-1-oxa-3,8-diazaspiro[4.5]decan-3-yl]-4H-pyrazino[2,3-b][1,4]oxazin-3-one; 2,2,2-trifluoroacetic acid], the MIC rises from 0.125 µg/mL (≈ 0.233 µM) to 0.25 µg/mL (2-fold).

O=C(O)C(F)(F)F.O=C1COc2ncc(N3CC4(CCN(CC5Cc6c(c(F)c7[nH]c([C@@H]8C[C@@H](O)CN8)nc7c6F)C5)CC4)OC3=O)nc2N1 [Example 46, 6-[8-[[4,8-Difluoro-2-[(2S,4R)-4-hydroxypyrrolidin-2-yl]-3,5,6,7-tetrahydrocyclopenta[f]benzimidazol-6-yl]methyl]-2-oxo-1-oxa-3,8-diazaspiro[4.5]decan-3-yl]-4H-pyrazino[2,3-b][1,4]oxazin-3-one;2,2,2-trifluoroacetic acid] and O=C(O)C(F)(F)F.O=C1COc2ncc(N3CC4(CCN(CC5Cc6c(c(F)c7[nH]c([C@H]8C[C@H](O)CN8)nc7c6F)C5)CC4)OC3=O)nc2N1 [Example 49, 6-[8-[[4,8-difluoro-2-[(2R,4S)-4-hydroxypyrrolidin-2-yl]-3,5,6,7-tetrahydrocyclopenta[f]benzimidazol-6-yl]methyl]-2-oxo-1-oxa-3,8-diazaspiro[4.5]decan-3-yl]-4H-pyrazino[2,3-b][1,4]oxazin-3-one; 2,2,2-trifluoroacetic acid] are the same in MIC: 0.25 µg/mL for the first, 0.25 µg/mL for the second.

Compared with O=C(O)C(F)(F)F.O=C1COc2ncc(N3CC(CCNCC4Cc5c(c(F)c6[nH]c([C@@H]7C[C@@H](O)CN7)nc6c5F)C4)OC3=O)nc2N1 (stereo partly drawn) [Example 47, 6-[5-[2-[[4,8-difluoro-2-[(2S,4R)-4-hydroxypyrrolidin-2-yl]-3,5,6,7-tetrahydrocyclopenta[f]benzimidazol-6-yl]methylamino]ethyl]-2-oxo-oxazolidin-3-yl]-4H-pyrazino[2,3-b][1,4]oxazin-3-one; 2,2,2-trifluoroacetic acid], O=C(O)C(F)(F)F.O=C1COc2ncc(N3CC4(CCN(CC5Cc6c(c(F)c7[nH]c([C@H]8C[C@@H](O)CN8)nc7c6F)C5)CC4)OC3=O)nc2N1 [Example 50, 6-[8-[[4,8-difluoro-2-[(2R,4R)-4-hydroxypyrrolidin-2-yl]-3,5,6,7-tetrahydrocyclopenta[f]benzimidazol-6-yl]methyl]-2-oxo-1-oxa-3,8-diazaspiro[4.5]decan-3-yl]-4H-pyrazino[2,3-b][1,4]oxazin-3-one; 2,2,2-trifluoroacetic acid] is 8-fold lower in MIC: 2 µg/mL for the first, 0.25 µg/mL for the second.

First: O=C(O)C(F)(F)F.O=C1COc2ncc(N3CC4(CCN(CC5Cc6cc7[nH]c([C@@H]8C[C@@H](O)CN8)nc7c(F)c6C5)CC4)OC3=O)nc2N1 (stereo partly drawn) [Example 48, 6-[8-[[8-fluoro-2-[(2S,4R)-4-hydroxypyrrolidin-2-yl]-3,5,6,7-tetrahydrocyclopenta[f]benzimidazol-6-yl]methyl]-2-oxo-1-oxa-3,8-diazaspiro[4.5]decan-3-yl]-4H-pyrazino[2,3-b][1,4]oxazin-3-one; 2,2,2-trifluoroacetic acid]
Second: O=C(O)C(F)(F)F.O=C1COc2ncc(N3CC4(CCN(CC5Cc6c(c(F)c7[nH]c([C@@H]8C[C@H](O)CN8)nc7c6F)C5)CC4)OC3=O)nc2N1 [Example 52, 6-[8-[[4,8-difluoro-2-[(2S,4S)-4-hydroxypyrrolidin-2-yl]-3,5,6,7-tetrahydrocyclopenta[f]benzimidazol-6-yl]methyl]-2-oxo-1-oxa-3,8-diazaspiro[4.5]decan-3-yl]-4H-pyrazino[2,3-b][1,4]oxazin-3-one; 2,2,2-trifluoroacetic acid]
The MIC of the first is 2-fold lower: 0.25 µg/mL for the first, 0.5 µg/mL for the second.

First: O=C1COc2ncc(N3CC4(CC(NCC5Cc6c(c(F)c7[nH]c([C@H]8C[C@@H](O)CN8)nc7c6F)C5)C4)OC3=O)nc2N1 (stereo partly drawn) [Example 53, 6-[2-[[4,8-difluoro-2-[(2R,4R)-4-hydroxypyrrolidin-2-yl]-3,5,6,7-tetrahydrocyclopenta[f]benzimidazol-6-yl]methylamino]-6-oxo-5-oxa-7-azaspiro[3.4]octan-7-yl]-4H-pyrazino[2,3-b][1,4]oxazin-3-one]
Second: CN1C[C@H](O)C[C@H]1c1nc2c(F)c3c(c(F)c2[nH]1)CC(CN1CCC2(CC1)CN(c1cnc4c(n1)NC(=O)CO4)C(=O)O2)C3 [Example 58, 6-[8-[[4,8-Difluoro-2-[(2S,4R)-4-hydroxy-1-methyl-pyrrolidin-2-yl]-3,5,6,7-tetrahydrocyclopenta[f]benzimidazol-6-yl]methyl]-2-oxo-1-oxa-3,8-diazaspiro[4.5]decan-3-yl]-4H-pyrazino[2,3-b][1,4]oxazin-3-one]
The MIC of the first is 4-fold higher: 4 µg/mL (≈ 6.87 µM) for the first, 1 µg/mL (≈ 1.64 µM) for the second.

First: O=C(O)C(F)(F)F.O=C1COc2ncc(N3CC4(CCN(CC5Cc6c(c(F)c7[nH]c([C@H]8NCC[C@@H]8O)nc7c6F)C5)CC4)OC3=O)nc2N1 [Example 54, 6-[8-[[4,8-difluoro-2-[(2R,3S)-3-hydroxypyrrolidin-2-yl]-3,5,6,7-tetrahydrocyclopenta[f]benzimidazol-6-yl]methyl]-2-oxo-1-oxa-3,8-diazaspiro[4.5]decan-3-yl]-4H-pyrazino[2,3-b][1,4]oxazin-3-one; 2,2,2-trifluoroacetic acid]
Second: Cn1c([C@@H]2C[C@@H](O)CN2)nc2c(F)c3c(c(F)c21)CC(CN1CCC2(CC1)CN(c1cnc4c(n1)NC(=O)CO4)C(=O)O2)C3.O=C(O)C(F)(F)F (stereo partly drawn) [Example 55, 6-[8-[[4,8-difluoro-2-[(2S,4R)-4-hydroxypyrrolidin-2-yl]-1-methyl-6,7-dihydro-5H-cyclopenta[f]benzimidazol-6-yl]methyl]-2-oxo-1-oxa-3,8-diazaspiro[4.5]decan-3-yl]-4H-pyrazino[2,3-b][1,4]oxazin-3-one; 2,2,2-trifluoroacetic acid]
The MIC of the first is 2-fold lower: 0.125 µg/mL for the first, 0.25 µg/mL for the second.
